This note sets out measurements from ChEMBL document CHEMBL1795213, “Design, synthesis and biological activity of novel peptidyl benzyl ketone FVIIa inhibitors” (Bioorg Med Chem Lett, 2011).

As usually defined, the solubility is the concentration that dissolves in the medium under given conditions. A low value points to a poorly soluble substance. As usually defined, the IC50 is the midpoint of a concentration-inhibition curve. By Ki is commonly meant a dissociation constant, usually derived from enzyme kinetics or from competition with a known ligand. A word on the inhibition: it is the share of the control response that was lost under treatment.

≈ marks a conversion by molar mass, not a printed value. Some results are limits rather than exact numbers.

Series [1] is described as follows: Solubility of the compound in buffer. The series is classed as physicochemical.
Series [2] addresses T1, Coagulation factor VII (Homo sapiens, UniProt P08709).
T1 sequence (P08709 whole entry): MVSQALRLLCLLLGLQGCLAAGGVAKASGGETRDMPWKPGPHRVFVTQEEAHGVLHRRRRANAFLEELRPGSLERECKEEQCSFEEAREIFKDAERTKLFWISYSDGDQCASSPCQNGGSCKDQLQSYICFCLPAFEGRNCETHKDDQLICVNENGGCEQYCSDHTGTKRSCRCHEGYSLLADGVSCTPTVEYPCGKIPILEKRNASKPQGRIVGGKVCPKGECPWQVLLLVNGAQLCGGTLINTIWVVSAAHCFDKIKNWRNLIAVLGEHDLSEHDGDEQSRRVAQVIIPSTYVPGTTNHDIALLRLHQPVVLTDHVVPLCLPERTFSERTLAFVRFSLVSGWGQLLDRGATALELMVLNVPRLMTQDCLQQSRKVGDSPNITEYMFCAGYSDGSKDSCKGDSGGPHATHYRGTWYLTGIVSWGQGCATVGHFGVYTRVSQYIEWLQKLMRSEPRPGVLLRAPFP
Briefly: Inhibition of recombinant F7a using S-2288 as substrate after 15 mins by competitive binding assay.

Series [3] has as its target T2, Prothrombin (Homo sapiens, UniProt P00734). The experiment in a line: Inhibition of thrombin using S-2288 as substrate after 15 mins by competitive binding assay.
In series [4] the target is T3, Coagulation factor X (Homo sapiens, UniProt P00742). The experiment in a line: Inhibition of F10a using S-2288 as substrate after 15 mins by competitive binding assay.
For series [5], the target named is T1, Coagulation factor VII. Briefly: Inhibition of recombinant F7a using S-2288 as substrate after 15 mins by linear fitting analysis.
The target in series [6] is T2, Prothrombin. The experiment in a line: Inhibition of thrombin using S-2288 as substrate after 15 mins by competitive binding assay relative to control.
Series [7] addresses T3, Coagulation factor X. The experiment in a line: Inhibition of F10a using S-2288 as substrate after 15 mins by competitive binding assay relative to control.
For series [8], the target named is T4, Coagulation factor VII (Homo sapiens) (UniProt P08709).
T4 sequence (whole entry): T1 sequence (P08709 whole entry)
Briefly: Inhibition of recombinant F7a using S-2288 as substrate after 15 mins by competitive binding assay relative to control.

`Cc1c(C)c(S(=O)(=O)NC(=N)NCCC[C@H](NC(=O)[C@@H](NC(=O)OC(C)(C)C)[C@@H](C)OCc2ccccc2)C(=O)Cc2ccccc2)c(C)c2c1OC(C)(C)CC2`: the solubility in series [1] came out at 400 µM (≈ 322 µg/mL). In series [1], `CC(=O)N[C@@H](Cc1ccccc1)C(=O)N[C@@H](Cc1ccccc1)C(=O)N[C@@H](CCCNC(=N)N)C(=O)Cc1ccccc1` displayed a solubility of 400 µM (≈ 234 µg/mL). The IC50 on Coagulation factor VII [2] was over 400 µM. As to `C[C@@H](O)[C@H](NC(=O)[C@@H](N)Cc1ccc(O)cc1)C(=O)N[C@@H](CCCNC(=N)N)C(=O)Cc1ccccc1`, the solubility in series [1] amounted to 400 µM (≈ 205 µg/mL). For the same compound, on Coagulation factor VII [2], the IC50 is over 1340 µM. The compound `CC(=O)N[C@@H](Cc1ccc(O)cc1)C(=O)N[C@H](C(=O)N[C@@H](CCCNC(=N)N)C(=O)Cc1ccccc1)[C@@H](C)O` showed a solubility in series [1] of 400 µM (≈ 222 µg/mL). In addition, the IC50 at Coagulation factor VII [2] was over 1340 µM. For the compound `CC(=O)N[C@@H](Cc1ccccc1)C(=O)N[C@@H](Cc1ccccc1)C(=O)N[C@@H](CCCCNC(=N)NS(=O)(=O)c1c(C)c(C)c2c(c1C)CCC(C)(C)O2)C(=O)Cc1ccccc1`, in series [1], the solubility amounted to 400 µM (≈ 346 µg/mL). Compound `Cc1c(C)c(S(=O)(=O)NC(=N)NCCCC[C@H](NC(=O)[C@H](CC(C)C)NC(=O)[C@H](Cc2ccc(OCc3ccccc3)cc2)NC(=O)OC(C)(C)C)C(=O)Cc2ccccc2)c(C)c2c1OC(C)(C)CC2` gave a solubility in series [1] of 400 µM (≈ 398 µg/mL). On the same count and under the same terms, under `Cc1c(C)c(S(=O)(=O)NC(=N)NCCCC[C@H](NC(=O)[C@H](CC(C)C)NC(=O)[C@H](Cc2ccc(OCc3ccccc3)cc2)NS(=O)(=O)Cc2ccccc2)C(=O)Cc2ccccc2)c(C)c2c1OC(C)(C)CC2` stands 400 µM (≈ 420 µg/mL).

`C[C@@H](O)[C@H](NC(=O)[C@@H](N)Cc1ccc(O)cc1)C(=O)N[C@@H](CCCCN=C(N)N)C(=O)Cc1ccccc1`: the IC50 at Prothrombin [3] and on Coagulation factor X [4] was over 1340 µM throughout. Compound `N=C(N)NCCC[C@H](NC(=O)[C@H](Cc1ccccc1)NC(=O)[C@@H](Cc1ccccc1)NC(=O)OCc1ccccc1)C(=O)Cc1ccccc1` came in with a solubility in series [1] of 400 µM (≈ 271 µg/mL). The half-inhibitory concentration (IC50) at Coagulation factor VII [2] was 16 µM. For the same compound, on Coagulation factor VII [5], the Ki is 8 µM. `N=C(N)NCCC[C@H](NC(=O)[C@H](Cc1ccccc1)NC(=O)[C@H](Cc1ccccc1)NS(=O)(=O)Cc1ccccc1)C(=O)Cc1ccccc1`: the solubility in series [1] came out at 400 µM (≈ 279 µg/mL). Moreover, the IC50 on Coagulation factor VII [2] was 26 µM. Further, the inhibition constant (Ki) at Coagulation factor VII [5] was 43 µM. Turning to `CC(=O)N[C@@H](Cc1ccc(OCc2ccccc2)cc1)C(=O)N[C@H](C(=O)N[C@@H](CCCCNC(=N)NS(=O)(=O)c1c(C)c(C)c2c(c1C)CCC(C)(C)O2)C(=O)Cc1ccccc1)[C@@H](C)OCc1ccccc1`, the concentration in solution in series [1] (solubility) came to 400 µM (≈ 406 µg/mL).

`Cc1c(C)c(S(=O)(=O)NC(=N)NCCCC[C@H](NC(=O)[C@H](Cc2ccccc2)NC(=O)[C@H](Cc2ccccc2)NC(=O)OCc2ccccc2)C(=O)Cc2ccccc2)c(C)c2c1OC(C)(C)CC2` gave a solubility in series [1] of 400 µM (≈ 383 µg/mL). `Cc1c(C)c(S(=O)(=O)NC(=N)NCCCC[C@H](NC(=O)[C@@H](NC(=O)[C@H](Cc2ccc(OCc3ccccc3)cc2)NS(=O)(=O)Cc2ccccc2)[C@@H](C)OCc2ccccc2)C(=O)Cc2ccccc2)c(C)c2c1OC(C)(C)CC2`: the solubility in series [1] was determined as 400 µM (≈ 451 µg/mL). In series [1], `N=C(N)NCCC[C@H](NC(=O)[C@H](Cc1ccccc1)NC(=O)[C@H](Cc1ccccc1)NC(=O)OCc1ccccc1)C(=O)Cc1ccccc1` showed a solubility of 400 µM (≈ 271 µg/mL). Further, on Coagulation factor VII [2], the IC50 is 109 µM. Also, the inhibition constant Ki on Coagulation factor VII [5] came out at 89 µM. For `N=C(N)NCCC[C@H](NC(=O)[C@H](Cc1ccccc1)NC(=O)[C@@H](N)Cc1ccccc1)C(=O)Cc1ccccc1`, in series [1], the solubility stood at 400 µM (≈ 217 µg/mL). Also, the IC50 at Coagulation factor VII [2] is over 1480 µM. Consider `Cc1c(C)c(S(=O)(=O)NC(=N)NCCC[C@H](NC(=O)[C@H](CC(C)C)NC(=O)OC(C)(C)C)C(=O)Cc2ccccc2)c(C)c2c1OC(C)(C)CC2`, for which the solubility in series [1] was 400 µM (≈ 291 µg/mL). For the compound `N=C(N)NCCC[C@H](NC(=O)[C@H](Cc1ccccc1)NC(=O)[C@@H](Cc1ccccc1)NS(=O)(=O)Cc1ccccc1)C(=O)Cc1ccccc1`, the solubility in series [1] came out at 400 µM (≈ 279 µg/mL). Moreover, the IC50 on Coagulation factor VII [2] turned out to be 640 µM. In series [1], `Cc1c(C)c(S(=O)(=O)NC(=N)NCCCC[C@H](NC(=O)[C@H](Cc2ccccc2)NC(=O)[C@@H](Cc2ccccc2)NC(=O)OCc2ccccc2)C(=O)Cc2ccccc2)c(C)c2c1OC(C)(C)CC2` returned a solubility of 400 µM (≈ 383 µg/mL). The compound `CC(C)C[C@H](NC(=O)[C@H](Cc1ccccc1)NS(=O)(=O)Cc1ccccc1)C(=O)N[C@@H](CCCNC(=N)N)C(=O)Cc1ccccc1` showed a solubility in series [1] of 400 µM (≈ 265 µg/mL). At Coagulation factor VII [2], the IC50 is over 580 µM. Compound `Cc1c(C)c(S(=O)(=O)NC(=N)NCCCC[C@H](NC(=O)[C@H](Cc2ccccc2)NC(=O)[C@@H](Cc2ccccc2)NC(=O)OC(C)(C)C)C(=O)Cc2ccccc2)c(C)c2c1OC(C)(C)CC2` registered a solubility in series [1] of 400 µM (≈ 369 µg/mL). Still for that read-out and setting: under `Cc1c(C)c(S(=O)(=O)NC(=N)NCCCC[C@H](NC(=O)[C@H](Cc2ccccc2)NC(=O)[C@H](Cc2ccccc2)NC(=O)OC(C)(C)C)C(=O)Cc2ccccc2)c(C)c2c1OC(C)(C)CC2` stands 400 µM (≈ 369 µg/mL); under `Cc1c(C)c(S(=O)(=O)NC(=N)NCCC[C@H](NC(=O)[C@H](Cc2ccccc2)NC(=O)OC(C)(C)C)C(=O)Cc2ccccc2)c(C)c2c1OC(C)(C)CC2`, 400 µM (≈ 305 µg/mL); under `Cc1c(C)c(S(=O)(=O)NC(=N)NCCCC[C@H](NC(=O)[C@H](CC(C)C)NC(=O)[C@H](Cc2ccccc2)NC(=O)OC(C)(C)C)C(=O)Cc2ccccc2)c(C)c2c1OC(C)(C)CC2`, 400 µM (≈ 356 µg/mL).

As to `C[C@@H](O)[C@H](NC(=O)[C@@H](N)Cc1ccc(O)cc1)C(=O)N[C@@H](CCCCNC(=N)N)C(=O)Cc1ccccc1`, the inhibition at Prothrombin [6] was determined as 5.5%; on Coagulation factor X [7], 30.4%; in series [8], 18.9%.
